Results taken from EP3263134A1, “COMPOSITION FOR PREVENTING OR TREATING VALVE CALCIFICATION, CONTAINING DPP-4 INHIBITOR” (The Asan Foundation, priority 2015, dated 2016).

Assays:
[1] = tested on: DPP-4 promoter; experiment: DPP-4 promoter activity in VSMCs (luciferase reporter); assay type: cell-based; conditions: wild-type or eNOS-/- mouse VSMCs (FIG. 7c)
Description: To obtain more direct evidence for the regulatory function of NO in a decrease in DPP-4 expression, it was determined whether DPP-4 promoter activity would be regulated by NO.
First, VSMCs were cultured in a 6-well plate to reach a confluency of 80%. Using Lipofectamine2000 (Life Technology), a DPP-4 reporter containing a normal or mutated NF-κB binding site was cloned into a pGL3-basic vector (Promega), and the cells were transfected with the vector. After 24 hours, firefly and Renilla luciferase activities in the cells were measured using a Dual-Glo luciferase assay system, (Promega). The firefly luciferase activity was normalized with the Renilla luciferase activity.

[2] = tested on: NF-κB; experiment: NF-κB activity in VSMCs; assay type: cell-based; conditions: wild-type or eNOS-/- mouse VSMCs (FIG. 7d)
Excerpt: NF-κB activity in VSMCs is inhibited by NO. It was shown that NF-κB activity was higher in eNOS-/- mouse VSMCs than in wild-type mouse VSMCs, and this activity was reduced by treatment with DETA-NO (FIG. 7d). Because the DPP4 promoter has a putative NF-κB binding site, the present inventors determined whether NF-κB activity could directly regulate DPP-4 promoter activity.

[3] = tested on: DPP-4; experiment: DPP-4 mRNA and protein expression in VSMCs (RT-PCR, immunoblot); assay type: cell-based, mouse
Description: (§1) The aortas, extracted from the eNOS-/- mice and the wild-type mice together with the hearts in Example 2, were washed in serum-free M199 (Cellgro), cut to small pieces, and then cultured in M199 containing 20% fetal calf serum and 3 mg/mL collagenase (Sigma) in a water bath at 37°C for 3 hours. […] The isolated vascular smooth muscle cells were seeded at a concentration of 30%, and after 24 hours, the medium was replaced with osteogenic basal medium (Osteogenic SingleQuots, Lonza, USA). The medium was replaced at 3-day intervals during 28 days of culture.
In this Example, vascular smooth muscle cells obtained according to the method of Example 3 were treated with DETA-NONOate (DETA-NO) that is an NO donor.

[4] = tested on: DPP-4; conditions: stated as known; cited from earlier work
[5] = tested on: eNOS-/- mouse VSMCs (vascular smooth muscle cells); experiment: ALP activity, inhibition of osteogenic differentiation of VSMCs; assay type: cell-based; parameters: dose or concentration left out as unconfirmed; conditions: of each inhibitor for 7 days, 48-well plate, compared to negative control group not treated with the DPP-4 inhibitor
Description: as §1
In order to examine the effects of DPP-4 inhibitors other than sitagliptin on the inhibition of valvular calcification, the effects of treatment with various kinds of DPP-4 inhibitors on the inhibition of osteogenic differentiation of eNOS-/- mouse VSMCs (vascular smooth muscle cells) were evaluated.
eNOS-/- mouse VSMCs cultured in a 48-well plate were treated with […] of each of alogliptin, evogliptin, linaglipin, saxagliptin and vildagliptin for 7 days, and ALP activity in the cells was measured. As a result, ALP activity inhibition of 50% or lower compared to that in a negative control group not treated with the DPP-4 inhibitor was observed.

[6] = tested on: Human aortic valvular interstitial cells (VICs); experiment: Osteoblast differentiation (osteogenic ability) of human valvular interstitial cells; assay type: cell-based; conditions: human VICs treated with DPP-4 plus sitagliptin (FIG. 11)
Description: Using human VICs, the role of DPP-4 in osteoblast differentiation was analyzed.
Human VICs were isolated from aortic valve leaflets according to a conventional cell isolation method, and VIC cells at passage 2 to 10 were used. The VIC cells were incubated with DPP-4 (R & D), sitagliptin or DETA-NONOate (Enzo Life Sciences).

[7] = tested on: aortic valves from the eNOS-/- mice; experiment: von Kossa (VK) staining of aortic valve sections; assay type: in vivo; conditions: eNOS-/- mice after administration of sitagliptin (FIGS. 10a, 10b)
Description: Human aortic valve samples were fixed in 4% formalin solution for 24 hours, and then embedded in paraffin and sectioned to a thickness of 4 µm. In order to observe calcium deposition in the paraffin-embedded aortic valve and the cardiac basal segment, Von Kossa (VK) staining and Alizarin red (AR) staining were performed. For Von Kossa staining, the aortic valve fixed in formalin was washed with distilled water, and then exposed to 5% water-soluble AgNO3 and intense light at room temperature for 60 minutes.
(§2) C57BL/6J eNOS-/- (endothelial nitric oxide synthase knockout) mice (8-week old, n = 10, The Jackson Laboratory, Bar Harbor, Me, USA) and C57BL/6J wild-type mice (8-week old, wide type, WT, n = 10) were used. After purchase, the mice were fed with standard rodent feed up to 3 months of age, and administered with saline or sitagliptin (15 mg/kg/ day, Merck & Co., Inc.) for 12 weeks.

[8] = tested on: eNOS-/- mice; experiment: Osteosense680 imaging of aortic calcification / osteogenic activity after oral administration; assay type: in vivo; conditions: oral sitagliptin 15 mg/kg/day for 12 weeks, Osteosense680 imaging (FIGS. 9a, 9b)
Description: as §2
To detect osteogenic activity in the eNOS-/- mice, a bisphosphonate-conjugated imaging agent (Osteosense680, VisEn Medical Inc.) was injected via the tail vein. Osteosense680 binds to a calcified site (particularly hydroxyapatite) in vivo and acts as an imaging agent to detect osteoblast activity. The mice were euthanized, and then the whole body or isolated aortas were imaged using OptixMX3 (ART Advanced Research Technologies, Inc).

NCCN(CCN)[N+]([O-])=NO [DETA-NO, DETA-NONOate]
DPP-4 promoter activity [1]: inhibited by treatment with DETA-NO in a concentration-dependent manner | NF-κB activity [2]: reduced | expression of DPP-4 mRNA in the VSMCs ([3]; RT-PCR after 24 hours of treatment with DETA-NO (FIG. 7a)): decreased | expression of DPP-4 protein in the VSMCs ([3]; immunoblot after 48 hours of treatment with DETA-NO (FIG. 7b)): also decreased

COC(=O)[C@@H](N)CCCNC(=N)N[N+](=O)[O-] [L-NAME, Nω-nitro-L-arginine methyl ester]
DPP-4 expression in the aorta [4]: significantly increases DPP-4 expression in the aorta

Cn1c(=O)cc(N2CCC[C@@H](N)C2)n(Cc2ccccc2C#N)c1=O [alogliptin]
ALP activity inhibition [5]: ≤ 50%

CC(C)(C)OC[C@@H]1C(=O)NCCN1C(=O)C[C@H](N)Cc1cc(F)c(F)cc1F [evogliptin]
ALP activity inhibition [5]: ≤ 50%

CC#CCn1c(N2CCC[C@@H](N)C2)nc2c1c(=O)n(Cc1nc(C)c3ccccc3n1)c(=O)n2C [linaglipin]
ALP activity inhibition [5]: ≤ 50%

N#C[C@@H]1C[C@@H]2C[C@@H]2N1C(=O)[C@@H](N)C12CC3CC(CC(O)(C3)C1)C2 [saxagliptin]
ALP activity inhibition [5]: ≤ 50%

N[C@@H](CC(=O)N1CCn2c(nnc2C(F)(F)F)C1)Cc1cc(F)c(F)cc1F [sitagliptin]
DPP-4-induced increase of the osteogenic ability of VICs [6]: eliminated | aortic calcification in VK-stained sections of the aortic valves [7]: aortic calcification can be inhibited | aortic calcification in the living mice [8]: reduced aortic calcification

N#C[C@@H]1CCCN1C(=O)CNC12CC3CC(CC(O)(C3)C1)C2 [vildagliptin]
ALP activity inhibition [5]: ≤ 50%
